Reference: article PMC12566046, “Arylpiperazinyl-Benzocycloheptapyrrole-Carboxamides Endowed with Dual Anticancer and Antiviral Activities” (Molecules, 2025)

Legend:
[1] = tested on: 786-0 (renal cancer cell line); assay: NCI-60 single-dose assay; assay type: cell-based, human; conditions: Homo sapiens, 786-0, read-out: growth inhibition (GI%) and cytotoxicity (negative values)
Procedure, shortened: (§1)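 One-dose NCI-60 screen measuring cytotoxic activity; compounds meeting pre-set threshold inhibition criteria in a minimum number of lines advanced to the five-dose assay.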

[2] = tested on: BT-549 (breast cancer cell line); assay: NCI-60 single-dose assay; assay type: cell-based, human; conditions: Homo sapiens, BT-549, read-out: growth inhibition (GI%) and cytotoxicity (negative values)
Procedure, shortened: as §1

[3] = tested on: CAKI-1 (renal cancer cell line); assay: NCI-60 single-dose assay; assay type: cell-based, human; conditions: Homo sapiens, CAKI-1, read-out: growth inhibition (GI%) and cytotoxicity (negative values)
Procedure, shortened: as §1

[4] = tested on: CCRF-CEM (leukemia cell line); assay: NCI-60 single-dose assay; assay type: cell-based, human; conditions: Homo sapiens, read-out: growth inhibition (GI%) and cytotoxicity (negative values)
Procedure, shortened: as §1

[5] = tested on: COLO 205 (colon cancer cell line); assay: NCI-60 single-dose assay; assay type: cell-based, human; conditions: human
Procedure, shortened: as §1

[6] = tested on: EKVX (non-small cell lung cancer cell line); assay: NCI-60 single-dose assay; assay type: cell-based, human; conditions: Homo sapiens, read-out: growth inhibition (GI%) and cytotoxicity (negative values)
Procedure, shortened: as §1

[7] = tested on: HCT-15 (colon cancer cell line); assay: NCI-60 single-dose assay; assay type: cell-based, human; conditions: Homo sapiens, HCT-15, read-out: growth inhibition (GI%) and cytotoxicity (negative values)
Procedure, shortened: as §1

[8] = tested on: KM12 (colon cancer cell line); assay: NCI-60 single-dose assay; assay type: cell-based, human; conditions: Homo sapiens, KM12, read-out: growth inhibition (GI%) and cytotoxicity (negative values)
Procedure, shortened: as §1

M14 (melanoma cell line) = assay: NCI-60 single-dose assay; assay type: cell-based, human; conditions: human
Procedure, shortened: as §1

[9] = tested on: MALME-3M (melanoma cell line); assay: NCI-60 single-dose assay; assay type: cell-based, human; conditions: human
Procedure, shortened: as §1

[10] = tested on: MCF-7 (breast cancer cell line); assay: NCI-60 single-dose assay; assay type: cell-based, human; conditions: Homo sapiens, MCF7, read-out: growth inhibition (GI%) and cytotoxicity (negative values), MCF-7, 10^−5 M
Procedure, shortened: as §1

[11] = tested on: MDA-MB-231/ATCC (breast cancer cell line); assay: NCI-60 single-dose assay; assay type: cell-based, human; conditions: Homo sapiens, MDA-MB-231, read-out: growth inhibition (GI%) and cytotoxicity (negative values)
Procedure, shortened: as §1

[12] = tested on: MDA-MB-435 (melanoma cell line); assay: NCI-60 single-dose assay; assay type: cell-based, human
Procedure, shortened: as §1

[13] = tested on: NCI-H226 (non-small cell lung cancer cell line); assay: NCI-60 single-dose assay; assay type: cell-based, human; conditions: Homo sapiens, NCI-H226, read-out: growth inhibition (GI%) and cytotoxicity (negative values)
Procedure, shortened: as §1

[14] = tested on: NCI-H23 (non-small cell lung cancer cell line); assay: NCI-60 single-dose assay; assay type: cell-based, human; conditions: Homo sapiens, NCI-H23, read-out: growth inhibition (GI%) and cytotoxicity (negative values)
Procedure, shortened: as §1

[15] = tested on: NCI-H460 (non-small cell lung cancer cell line); assay: NCI-60 single-dose assay; assay type: cell-based, human; conditions: Homo sapiens, NCI-H460, read-out: growth inhibition (GI%) and cytotoxicity (negative values)
Procedure, shortened: as §1

[16] = tested on: SK-MEL-2 (melanoma cell line); assay: NCI-60 single-dose assay; assay type: cell-based, human
Procedure, shortened: as §1

[17] = tested on: SK-MEL-28 (melanoma cell line); assay: NCI-60 single-dose assay; assay type: cell-based, human; conditions: human
Procedure, shortened: as §1

[18] = tested on: SK-MEL-5 (melanoma cell line); assay: NCI-60 single-dose assay; assay type: cell-based, human; conditions: human
Procedure, shortened: as §1

[19] = tested on: UO-31 (renal cancer cell line); assay: NCI-60 single-dose assay; assay type: cell-based, human; conditions: Homo sapiens, UO-31, read-out: growth inhibition (GI%) and cytotoxicity (negative values)
Procedure, shortened: as §1

NCI-60 cell line panel = assay: NCI-60 single-dose assay, whole panel; assay type: cell-based, human; conditions: summary over the panel
Procedure, shortened: as §1

[20] = tested on: MOLT-4 (leukemia cell line); assay: NCI-60 five-dose assay; assay type: cell-based, human; conditions: Homo sapiens, five doses (10^−4–10^−8 M), read-out: Growth inhibition 50 (GI50)
[21] = tested on: HCT-116 (colon cancer cell line); assay: NCI-60 five-dose assay; assay type: cell-based, human; conditions: Homo sapiens, five doses (10^−4–10^−8 M), read-out: Growth inhibition 50 (GI50)
Breast Cancer panel = assay: NCI-60 five-dose assay, panel-level GI50 (mean graph midpoint); assay type: cell-based, human; conditions: Homo sapiens; Breast Cancer panel average; read-out: GI50 mean graph midpoint (MG_MID)
Experimental: (§2) Due to these preliminary results, six compounds, 1, 5, 10, 11, 17, and 20, were selected for the five-dose screen NCI-programme against the same panel of tumour cell lines.
(§3) Next, a mean graph midpoint (MG_MD) was calculated for compounds 1, 5, 10, 11, 17, and 20 and reported as waterfall graphs GI50, TGI, and LC50 in the Supplementary Materials (Figures S69–S86). In Table 9, we reported the average GI50 for the nine-cancer panels, underlining both the activity and selectivity for compounds 1, 10, 11, and 20.

CNS Cancer panel = assay: as above; assay type: cell-based, human; conditions: Homo sapiens; CNS Cancer panel average; read-out: GI50 mean graph midpoint (MG_MID)
Experimental: as §2, §3

[22] = tested on: Non-Small Cell Lung Cancer panel; assay: as above; assay type: cell-based, human; conditions: Homo sapiens; Non-Small Cell Lung Cancer panel average; read-out: GI50 mean graph midpoint (MG_MID)
Experimental: as §2, §3

Ovarian Cancer panel = assay: as above; assay type: cell-based, human; conditions: Homo sapiens; Ovarian Cancer panel average; read-out: GI50 mean graph midpoint (MG_MID)
Experimental: as §2, §3

Prostate Cancer panel = assay: as above; assay type: cell-based, human; conditions: Homo sapiens; Prostate Cancer panel average; read-out: GI50 mean graph midpoint (MG_MID)
Experimental: as §2, §3

Renal Cancer panel = assay: as above; assay type: cell-based, human; conditions: Homo sapiens; Renal Cancer panel average; read-out: GI50 mean graph midpoint (MG_MID)
Experimental: as §2, §3

[23] = tested on: LOX IMVI (melanoma cell line); assay: NCI-60 five-dose assay; conditions: for GI50: read-out: Growth inhibition 50 (GI50)
[24] = tested on: MALME-3M (melanoma cell line); assay: NCI-60 five-dose assay; conditions: for GI50 / CC50: Homo sapiens, Malme-3M; for GI50: read-out: Growth inhibition 50 (GI50); for CC50: read-out: LC50 (molar concentration leading to 50% net cell death); for TGI (molar concentration giving total growth inhibition): MALME-3M

Row | Structure (SMILES) | inhibition at 10 µM [1] | inhibition at 10 µM [2] | inhibition at 10 µM [3] | inhibition at 10 µM [4] | growth inhibition (GI%) and cytotoxicity (negative values) [5] | inhibition at 10 µM [6] | inhibition at 10 µM [7] | inhibition at 10 µM [8] | growth inhibition (GI%) and cytotoxicity (negative values) (M14 (melanoma cell line)) | growth inhibition (GI%) and cytotoxicity (negative values) [9] | inhibition at 10 µM [10] | inhibition at 10 µM [11] | inhibition at 10 µM [13] | inhibition at 10 µM [14] | inhibition at 10 µM [15] | growth inhibition (GI%) and cytotoxicity (negative values) [17] | growth inhibition (GI%) and cytotoxicity (negative values) [18] | inhibition at 10 µM [19] | growth inhibition (GI%) reached against cancer cell lines of the NCI-60 panel (NCI-60 cell line panel) | GI50 [20] | other results
1 | O=C(NCCCN1CCN(c2ccccc2)CC1)c1cc2c([nH]1)-c1ccccc1CCC2 [Compound 10, N-(3-(4-Phenylpiperazin-1-yl)propyl)-1,4,5,6-tetrahydrobenzo[6,7]cyclohepta[1,2-b]pyrrole-2-carboxamide] | 68.7% | < 60% | 89.4% | 61.2% | −58.03% | 74.2% | 91.2% | 73.7% | −59.25% | −72.64% | 80.2% | < 60% | 75.2% | < 60% | 90.7% | −29.31% | −72.58% | < 60% | > 90% | 4.97 µM | inhibition at 10 µM ([12]; Homo sapiens, MDA-MB-435, read-out: growth inhibition (GI%) and cytotoxicity (negative values)): 75.1%; inhibition at 10 µM ([16]; Homo sapiens, SK-MEL-2, read-out: growth inhibition (GI%) and cytotoxicity (negative values)): 75%; GI50 [21]: 4.83 µM; GI50 (Breast Cancer panel): 8.32 µM; GI50 (CNS Cancer panel): 17 µM; GI50 [22]: 9.33 µM; GI50 (Ovarian Cancer panel): 12.3 µM; GI50 (Prostate Cancer panel): 6.61 µM; GI50 (Renal Cancer panel): 8.71 µM; TGI (molar concentration giving total growth inhibition) [23]: 19.5 µM; GI50 ([23]; Homo sapiens): 3.62 µM; GI50 [24]: 1.65 µM; CC50 [24]: 15.5 µM; TGI (molar concentration giving total growth inhibition) [24]: 4.36 µM
2 | O=C(NCCCN1CCN(Cc2ccccc2)CC1)c1c(Cl)[nH]c2c1CCCc1ccccc1-2 [Compound 20, N-(3-(4-Benzylpiperazin-1-yl)propyl)-2-chloro-1,4,5,6-tetrahydrobenzo[6,7]cyclohepta[1,2-b]pyrrole-3-carboxamide] | 87% | 68.4% | 84.7% | < 60% | −59.92% | 77.2% | 99% | 70.3% | −69.37% | −84.03% | 95.5% | 62.6% | < 60% | 60.2% | 83.1% | −88.58% | −89.68% | 65.9% | > 90% | 4.78 µM | growth inhibition (GI%) and cytotoxicity (negative values) ([12]; human): −21.33%; growth inhibition (GI%) and cytotoxicity (negative values) ([16]; human): −52.93%; GI50 [21]: 5.5 µM; GI50 (Breast Cancer panel): 6.92 µM; GI50 (CNS Cancer panel): 12 µM; GI50 [22]: 10.5 µM; GI50 (Ovarian Cancer panel): 12 µM; GI50 (Prostate Cancer panel): 9.55 µM; GI50 (Renal Cancer panel): 9.12 µM; TGI (molar concentration giving total growth inhibition) [23]: 15.85 µM; GI50 ([23]; Homo sapiens): 4.33 µM; CC50 ([23]; Homo sapiens, read-out: LC50 (molar concentration leading to 50% net cell death)): 40.7 µM; GI50 [24]: 2.02 µM; CC50 [24]: 7.76 µM; TGI (molar concentration giving total growth inhibition) [24]: 3.98 µM
